For this assay, the target named is PD-L1 His protein / PD-1 Fc protein (Homo sapiens, UniProt Q9NZQ7). As to the kind of experiment: HTRF Assay (PD-1/PD-L1 interaction). It counts as binding. The conditions noted are these: PD-L1 His 6 nM, PD-1 Fc 6 nM. The method in brief: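 Compounds tested from 20 μM down to 0.001 μM (3-fold) against 6 nM PD-L1 His and 6 nM PD-1 Fc, 15 min room temperature incubation. Detection after 1 h at room temperature with Tb cryptate anti-6HIS and XL665 anti-human IgG reagents (mixture at 0.35 nM and 6.7 nM), HTRF signal.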
(Time-resolved FRET reads energy transfer from a long-lived donor to a nearby acceptor.)

Each structure is given as a SMILES string.

PD-L1 His protein / PD-1 Fc protein, sequence (Q9NZQ7 19-238 limits assumed): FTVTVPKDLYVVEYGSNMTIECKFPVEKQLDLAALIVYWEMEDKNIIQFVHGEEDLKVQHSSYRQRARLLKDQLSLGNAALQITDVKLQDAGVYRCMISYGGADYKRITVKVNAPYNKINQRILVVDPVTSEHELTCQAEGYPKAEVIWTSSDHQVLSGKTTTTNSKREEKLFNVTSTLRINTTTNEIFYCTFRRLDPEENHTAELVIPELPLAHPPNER

One may read the IC50 as the midpoint of a concentration-inhibition curve. Read a low IC50 as greater potency in that assay. As to `COc1nc(-c2cccc(-c3cccc(-c4cnc5cc(CNC[C@@H]6CCC(=O)N6)ccc5c4)c3Cl)c2Cl)ccc1CNC[C@@H]1CCC(=O)N1` [Example 370, (5S)-5-[[[3-[2-Chloro-3-[2-chloro-3-[6-methoxy-5-[[[(2S)-5-oxopyrrolidin-2-yl]methylamino]methyl]-2-pyridyl]phenyl]phenyl]-7-quinolyl]methylamino]methyl]pyrrolidin-2-one], half-maximal inhibition (IC50) required 580 nM.

`COc1nc(-c2cccc(-c3cccc(-c4ccn5c(=O)c(C)c(CNCCO)nc5c4)c3Cl)c2Cl)ccc1CNC[C@@H]1CCC(=O)N1` [Example 371, (S)-8-(2,2′-Dichloro-3′-(6-methoxy-5-((((5-oxopyrrolidin-2-yl)methyl)amino)methyl)pyridin-2-yl)-[1,1′-biphenyl]-3-yl)-2-(((2-hydroxyethyl)amino)methyl)-3-methyl-4H-pyrido[1,2-a]pyrimidin-4-one]: the IC50 is 33 nM.

The molecule `COc1nc(-c2cccc(-c3cccc(-c4ccn5c(=O)c(C)c(CNC[C@@H]6CCC(=O)N6)nc5c4)c3Cl)c2Cl)ccc1CNC[C@@H]1CCC(=O)N1` [Example 372, 8-(2,2′-Dichloro-3′-(6-methoxy-5-(((((S)-5-oxopyrrolidin-2-yl)methyl)amino)methyl)pyridin-2-yl)-[1,1′-biphenyl]-3-yl)-3-methyl-2-(((((S)-5-oxopyrrolidin-2-yl)methyl)amino)methyl)-4H-pyrido[1,2-a]pyrimidin-4-one] came in with an IC50 of 60 nM.

The molecule `COc1nc(-c2cccc(-c3cccc(-c4ccn5c(=O)c(C)c(CN[C@H]6C[C@](C)(O)C6)nc5c4)c3Cl)c2Cl)ccc1CNC[C@@H]1CCC(=O)N1` [Example 373, 8-(2,2′-Dichloro-3′-(6-methoxy-5-(((((S)-5-oxopyrrolidin-2-yl)methyl)amino)methyl)pyridin-2-yl)-[1,1′-biphenyl]-3-yl)-2-((((1r,3r)-3-hydroxy-3-methylcyclobutyl)amino)methyl)-3-methyl-4H-pyrido[1,2-a]pyrimidin-4-one] gave a 50% inhibitory concentration (IC50) of 33 nM.

Molecule `COc1nc(-c2cccc(-c3cccc(-c4ccn5c(=O)c6c(nc5c4)N(C)CCNC6)c3Cl)c2Cl)ccc1CNC[C@@H]1CCC(=O)N1` [Example 374, (S)-10-(2,2′-Dichloro-3′-(6-methoxy-5-((((5-oxopyrrolidin-2-yl)methyl)amino)methyl)pyridin-2-yl)-[1,1′-biphenyl]-3-yl)-1-methyl-2,3,4,5-tetrahydropyrido[1′,2′:1,2]pyrimido [4,5-e][1,4]diazepin-6(1H)-one] had an IC50 of 6.5 nM.

For `COc1nc(-c2cccc(-c3cccc(-c4cnc5c(CNC[C@@H]6CCC(=O)N6)cn(C)c5c4)c3Cl)c2Cl)ccc1CNC[C@@H]1CCC(=O)N1` [Example 375, (S)-5-((((6-(2,2′-Dichloro-3′-(1-methyl-3-(((((S)-5-oxopyrrolidin-2-yl)methyl)amino)methyl)-1H-pyrrolo[3,2-b]pyridin-6-yl)-[1,1′-biphenyl]-3-yl)-2-methoxypyridin-3-yl)methyl)amino)methyl)pyrrolidin-2-one], the IC50 turned out to be 180 nM.

In turn, `COc1nc(-c2cccc(-c3cccc(-c4ccn5c(=O)cc(CN[C@H]6C[C@](C)(O)C6)nc5c4)c3Cl)c2Cl)ccc1CNC[C@@H]1CCC(=O)N1` [Example 376, 8-(2,2′-Dichloro-3′-(6-methoxy-5-(((((S)-5-oxopyrrolidin-2-yl)methyl)amino)methyl)pyridin-2-yl)-[1,1′-biphenyl]-3-yl)-2-((((1r,3r)-3-hydroxy-3-methylcyclobutyl)amino)methyl)-4H-pyrido[1,2-a]pyrimidin-4-one] yielded an IC50 of 0.7 nM.

With `COc1nc(-c2cccc(-c3cccc(-c4ccn5c(=O)c(C)c(CNC[C@H](C)O)nc5c4)c3Cl)c2Cl)ccc1CNC[C@@H]1CCC(=O)N1` [Example 377, 8-(2,2′-Dichloro-3′-(6-methoxy-5-(((((S)-5-oxopyrrolidin-2-yl)methyl)amino)methyl)pyridin-2-yl)-[1,1′-biphenyl]-3-yl)-2-((((S)-2-hydroxypropyl)amino)methyl)-3-methyl-4H-pyrido[1,2-a]pyrimidin-4-one], the half-inhibitory concentration (IC50) came to 21 nM.

In turn, `COc1nc(-c2cccc(-c3cccc(-c4ccn5c(=O)c(CNCCO)cnc5c4)c3Cl)c2Cl)cc(Cl)c1CNC[C@@H]1CCC(=O)N1` [Example 378, (S)-8-(2,2′-Dichloro-3′-(4-chloro-6-methoxy-5-((((5-oxopyrrolidin-2-yl)methyl)amino)methyl)pyridin-2-yl)-[1,1′-biphenyl]-3-yl)-3-(((2-hydroxyethyl)amino)methyl)-4H-pyrido[1,2-a]pyrimidin-4-one] had an IC50 of 110 nM.

In turn, `COc1nc(-c2cccc(-c3cccc(-c4cnc5c(CNC[C@@H]6CCC(=O)N6)c(OC)nn5c4)c3Cl)c2Cl)ccc1CNC[C@@H]1CCC(=O)N1` [Example 379, (S)-5-((((6-(2,2′-Dichloro-3′-(2-methoxy-3-(((((S)-5-oxopyrrolidin-2-yl)methyl)amino)methyl)pyrazolo[1,5-a]pyrimidin-6-yl)-[1,1′-biphenyl]-3-yl)-2-methoxypyridin-3-yl)methyl)amino)methyl)pyrrolidin-2-one] showed an IC50 of 5.6 nM.

Molecule `COc1nc(-c2cccc(-c3cccc(-c4ccn5c(CNC[C@@H]6CCC(=O)N6)cnc5c4)c3Cl)c2Cl)ccc1CNC[C@@H]1CCC(=O)N1` [Example 380] returned an IC50 of 24 nM.

For the molecule `O=C1CC[C@@H](CNCc2cnc3cc(-c4cccc(-c5cccc(-c6cnc7c(CNC[C@@H]8CCC(=O)N8)cnn7c6)c5Cl)c4Cl)ccn3c2=O)N1` [Example 381, 8-(2,2′-dichloro-3′-(3-(((((S)-5-oxopyrrolidin-2-yl)methyl)amino)methyl)pyrazolo[1,5-a]pyrimidin-6-yl)-[1,1′-biphenyl]-3-yl)-3-(((((S)-5-oxopyrrolidin-2-yl)methyl)amino)methyl)-4H-pyrido[1,2-a]pyrimidin-4-one], the half-maximal inhibitory concentration (IC50) was found to be 5.9 nM.

The molecule `COc1nc(-c2cccc(-c3cccc(-c4ccn5c(Cl)c(CNC[C@@H]6CCC(=O)N6)nc5c4)c3Cl)c2Cl)ccc1CNC[C@@H]1CCC(=O)N1` [Example 382, (5S)-5-[[[6-[2-chloro-3-[2-chloro-3-[3-chloro-2-[[[(2S)-5-oxopyrrolidin-2-yl]methylamino]methyl]imidazo[1,2-a]pyridin-7-yl]phenyl]phenyl]-2-methoxy-3-pyridyl]methylamino]methyl]pyrrolidin-2-one] gave an IC50 of 110 nM.

In the case of `COc1nc(-c2cccc(-c3cccc(-c4ccn5c(Cl)c(CNCCO)nc5c4)c3Cl)c2Cl)ccc1CNCCO` [Example 383, 2-[[6-[2-Chloro-3-[2-chloro-3-[3-chloro-2-[(2-hydroxyethylamino)methyl]imidazo[1,2-a]pyridin-7-yl]phenyl]phenyl]-2-methoxy-3-pyridyl]methylamino]etanol], the IC50 worked out at 40 nM.

Take `COC(=O)C(C)(C)CNCc1cnc2cc(-c3cccc(-c4cccc(-c5ccc(CNC[C@@H]6CCC(=O)N6)c(OC)n5)c4Cl)c3Cl)ccn2c1=O` [Example 384, methyl (S)-3-(((8-(2,2′-dichloro-3′-(6-methoxy-5-((((5-oxopyrrolidin-2-yl)-methyl)-amino)-methyl)-pyridin-2-yl)-[1,1′-biphenyl]-3-yl)-4-oxo-4H-pyrido[1,2-a]pyrimidin-3-yl)-methyl)-amino)-2,2-dimethylpropanoate]: the midpoint of inhibition, the IC50, lay at 2.7 nM.

With `COc1nc(-c2cccc(-c3cccc(-c4ccc5[nH]c(CNC[C@@H]6CCC(=O)N6)c(Cl)c5n4)c3Cl)c2Cl)ccc1CNC[C@@H]1CCC(=O)N1` [Example 385, (S)-5-((((3-Chloro-5-(2,2′-dichloro-3′-(6-methoxy-5-(((((S)-5-oxopyrrolidin-2-yl)methyl)-amino)methyl)-pyridin-2-yl)-[1,1′-biphenyl]-3-yl)-1H-pyrrolo[3,2-b]-pyridin-2-yl)methyl)-amino)methyl)-pyrrolidin-2-one], the IC50 was found to be 13 nM.

`COc1nc(-c2cccc(-c3cccc(-c4ccc5c(Cl)c(CNC[C@@H]6CCC(=O)N6)[nH]c5n4)c3Cl)c2Cl)ccc1CNC[C@@H]1CCC(=O)N1` [Example 386, (S)-5-((((3-Chloro-6-(2,2′-dichloro-3′-(6-methoxy-5-(((((S)-5-oxopyrrolidin-2-yl)methyl)-amino)methyl)-pyridin-2-yl)-[1,1′-biphenyl]-3-yl)-1H-pyrrolo[2,3-b]-pyridin-2-yl)methyl)-amino)methyl)-pyrrolidin-2-one]: the half-maximal inhibitory concentration (IC50) is 28 nM.

Molecule `COc1nc(-c2cccc(-c3cccc(N4Cc5cc(CNC[C@@H]6CCC(=O)N6)ccc5C4=O)c3Cl)c2Cl)ccc1CNC[C@@H]1CCC(=O)N1` [Example 387, 2-(2,2′-Dichloro-3′-(6-methoxy-5-(((((S)-5-oxopyrrolidin-2-yl)methyl)amino)methyl)pyridin-2-yl)-[1,1′-biphenyl]-3-yl)-5-(((((S)-5-oxopyrrolidin-2-yl)methyl)amino)methyl)isoindolin-1-one] came in with an IC50 of 0.1 nM.

`COc1nc(-c2cccc(-c3cccc(-c4ccc5c(CNC[C@@H]6CCC(=O)N6)cn(C)c5n4)c3Cl)c2Cl)ccc1CNC[C@@H]1CCC(=O)N1` [Example 388, (5S)-5-[[[6-[2-Chloro-3-[2-chloro-3-[1-methyl-3-[[[(2S)-5-oxopyrrolidin-2-yl]methylamino]methyl]pyrrolo[2,3-b]pyridin-6-yl]phenyl]phenyl]-2-methoxy-3-pyridyl]methylamino]methyl]pyrrolidin-2-one] showed an IC50 of 610 nM.

As to `COc1nc(-c2cccc(-c3cccc(-c4ccc5ncc(CNC[C@@H]6CCC(=O)N6)n5c4)c3Cl)c2Cl)ccc1CNC[C@@H]1CCC(=O)N1` [Example 389, (5S)-5-[[[6-[2-Chloro-3-[2-chloro-3-[3-[[[(2S)-5-oxopyrrolidin-2-yl]methylamino]methyl]imidazo[1,2-a]pyridin-6-yl]phenyl]phenyl]-2-methoxy-3-pyridyl]methylamino]methyl]pyrrolidin-2-one], the IC50 is 40 nM.

For the origin of these results see patent publication US20230143612A1 (Arbutus Biopharma Corporation, priority 2020, published 2023).
